The values that follow come from US20250186410A1, “DUAL INHIBITORS OF TRYPTOPHAN DIOXYGENASES (IDO1 AND TDO) AND THEIR USE IN THERAPY” (ANTIDO THERAPEUTICS INTERNATIONAL SÀRL, priority 2022, published 2025).

Series [1] addresses human TDO (GL261 cells transfected to over-express full length human TDO) (Homo sapiens (Human), UniProt P48775). Put plainly: Cell-based assay for TDO inhibition. The note with it: 24 h; read-out: Cellular TDO IC50. As to the method:
Culture supernatant from each well was then transferred into a fresh, flat-bottomed 96-well plate, and kynurenine content was determined as described above for the IDO1 assay, and the concentration that inhibited 50% cellular enzyme activity was calculated.

The target in series [2] is Recombinant human IDO1 (rhIDO1) (Homo sapiens (Human), UniProt P14902). Put plainly: Enzymatic assay for IDO1 activity. It counts as biochemical. Conditions: read-out: Isolated IDO1 Enayme Assay IC50. As to the method:
Recombinant human IDO1 (rhIDO1) was expressed and purified from cultures of EC538 strain of E. coli transformed with pREP4 and pQE9-IDO plasmid. Reaction mixes were set up in 384-well microplates containing 50 mM phosphate buffer, 10 mM ascorbic, 10 μM methylene blue, 100 μg/mL catalase, 80 μM TRP, 0.01% Tween 20 (v/v) mixed with rhIDO1 (15 μL) at a final concentration of 9 nM in a total volume of 30 μL assay medium. The plates were incubated at 37° C. for 30 min, and the enzymatic reaction was terminated by adding piperidine (200 mM) and heated at 65° C. for 20 min. Fluorescence intensity was read at λex 400 nm and λem 500 nm. Test compounds were dissolved in 100% DMSO and pre-diluted in assay medium prior to adding rhIDO1. IDO1 inhibition (%) was calculated as
All experiments were carried out in triplicates, and statistical Analyses were conducted in Prism v5 (Graphpad Software, Inc., La Jolla, CA, USA).

Series [3] is described as follows: MTT cell viability in the cellular IDO1/TDO experiments. The class given is cell-based. The note with it: mouse, read-out: Cytotoxicity IC50. As to the method: The viability of the cells in each well in the same experiment was determined using the 3-(4,5-dimethylthiazolyl-2-yl)-2,5-diphenyltetrazolium bromide (MTT) colourimetric assay. After the removal of the supernatant for determination of IDO1 inhibition, the cells were incubated with MTT (500 μg/mL) until crystal formation was observed. Plates were centrifuged for 15 min at 2500 g, and then all the supernatant in then wells was discarded. DMSO (100 μL/well) was added to dissolve the crystals and then the absorbance in each well was measured at 570 nm. Cell viability in each well was expressed as a percentage of untreated controls. Triplicate cultures were used for all experiments unless stated otherwise.
The viability of the cells in each well in the same experiment was determined using the 3-(4,5-dimethylthiazolyl-2-yl)-2,5-diphenyltetrazolium bromide (MTT) colourimetric assay.

Series [4] addresses human IDO1 (LLTC-hIDO1 cells) (Homo sapiens (Human), UniProt P14902). Put plainly: Cell-based assay for IDO1 inhibition. Conditions: 24 h; read-out: Cellular IDO1 IC50. As to the method: Culture supernatant from each well was then transferred into a fresh, flat-bottomed 96-well plate, mixed with trichloroacetic acid (10% final concentration) and incubated for 20 min at 60° C. Plates were then centrifuged (10 min at 2500 g) and the supernatants were then transferred and mixed 1:1 with 4-(dimethylamino)benzaldehyde (20 mg/mL in acetic acid) in a new plate. The absorbance of each well was read at 480 nm, and the concentration that inhibited 50% cellular enzyme activity was calculated.

The subject of a further series is LLC-CR cells. Conditions: cited from earlier work.

SMILES strings stand for the structures.

Sequence of human TDO (GL261 cells transfected to over-express full length human TDO) (P48775 whole entry): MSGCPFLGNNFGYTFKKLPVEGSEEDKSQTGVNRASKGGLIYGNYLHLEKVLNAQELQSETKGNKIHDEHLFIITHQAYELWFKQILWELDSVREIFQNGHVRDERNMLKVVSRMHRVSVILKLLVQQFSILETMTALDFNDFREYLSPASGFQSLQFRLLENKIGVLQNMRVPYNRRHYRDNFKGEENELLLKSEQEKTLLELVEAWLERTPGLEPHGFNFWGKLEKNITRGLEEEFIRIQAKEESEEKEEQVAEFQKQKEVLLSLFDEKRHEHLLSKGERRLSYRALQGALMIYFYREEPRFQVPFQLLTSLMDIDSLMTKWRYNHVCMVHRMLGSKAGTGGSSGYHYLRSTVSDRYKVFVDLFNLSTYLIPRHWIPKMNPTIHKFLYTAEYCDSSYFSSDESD
Sequence of human IDO1 (LLTC-hIDO1 cells) (P14902 whole entry): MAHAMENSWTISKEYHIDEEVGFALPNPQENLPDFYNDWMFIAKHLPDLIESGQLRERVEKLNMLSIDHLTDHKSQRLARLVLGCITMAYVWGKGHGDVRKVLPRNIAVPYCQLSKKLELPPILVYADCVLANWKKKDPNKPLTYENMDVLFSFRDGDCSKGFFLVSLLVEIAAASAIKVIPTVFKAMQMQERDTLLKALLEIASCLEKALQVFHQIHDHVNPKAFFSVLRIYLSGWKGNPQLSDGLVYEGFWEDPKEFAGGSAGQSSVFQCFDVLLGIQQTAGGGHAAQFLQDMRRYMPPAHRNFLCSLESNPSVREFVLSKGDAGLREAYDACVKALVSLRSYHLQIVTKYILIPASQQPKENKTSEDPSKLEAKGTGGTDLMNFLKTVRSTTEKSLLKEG
Sequence of Recombinant human IDO1 (rhIDO1) (P14902 whole entry): as above

One may read the IC50 as the concentration needed to halve the response being measured. As for `Cc1cnc2onc(N)c2c1` [Compound 44, 5-Methylisoxazolo[5,4-b]pyridin-3-amine], the IC50 in series [1] is < 1 µM; in series [2] it was > 100 µM. For the same compound, the IC50 at 24 h in series [3] is > 100 µM.
Regarding `Nc1noc2ncncc12` [Compound 12, Isoxazolo[5,4-d]pyrimidin-3-amine], the IC50 in series [1] is 1 to 10 µM; in series [2] it was > 100 µM. In series [3], the IC50 at 24 h is > 100 µM.
On to `COc1cccc(Nc2ccc3c(N)noc3n2)c1` [Compound 95, N^6-(3-Methoxyphenyl)isoxazolo[5,4-b]pyridine-3,6-diamine], for which the IC50 in series [1] is 10 to 100 µM; in series [2], > 100 µM; in series [4], 10 to 100 µM. Moreover, the IC50 at 24 h in series [3] is > 100 µM.
As for `COc1ccc2c(N)noc2n1` [Compound 41, 6-Methoxyisoxazolo[5,4-b]pyridin-3-amine], the IC50 in series [1] was 10 to 100 µM; in series [2], > 100 µM; in series [4] it was 1 to 10 µM. For the same compound, the IC50 at 24 h in series [3] is > 100 µM.
Consider `Nc1noc2ncc(Br)cc12` [Compound 6, 5-Bromoisoxazolo[5,4-b]pyridin-3-amine], for which the IC50 in series [1] is < 1 µM. For the same compound, in series [3], the IC50 at 24 h was > 100 µM.
For `Nc1noc2nc(Cl)c(Cl)cc12` [Compound 67, 5,6-Dichloroisoxazolo[5,4-b]pyridin-3-amine], in that order: < 1 µM and > 100 µM.
Regarding `Cc1nc2onc(N)c2c(C)c1Cl` [Compound 3, 5-Chloro-4,6-dimethylisoxazolo[5,4-b]pyridin-3-amine], the IC50 in series [1] lay within 10 to 100 µM. Besides, the IC50 at 24 h in series [3] lay in the range of 10 to 100 µM.
In the case of `Nc1noc2ncc(I)cc12` [Compound 16, 5-Iodoisoxazolo[5,4-b]pyridin-3-amine], the IC50 in series [1] was < 1 µM. Also, the IC50 at 24 h in series [3] is > 100 µM.
As for `Cc1cc2c(N)noc2nc1C` [Compound 45, 5,6-Dimethylisoxazolo[5,4-b]pyridin-3-amine], the IC50 was 1 to 10 µM in series [1] and > 100 µM in series [2]. Also, the IC50 at 24 h in series [3] was > 100 µM.
`Nc1noc2nc(-c3cccs3)ccc12` [Compound 74, 6-(2-Thienyl)isoxazolo[5,4-b]pyridin-3-amine]: the IC50 was 10 to 100 µM in series [1] and > 100 µM in series [2]. Besides, in series [3], the IC50 at 24 h is > 100 µM.
Take `Nc1noc2nc(Cl)ccc12` [Compound 11, 6-Chloroisoxazolo[5,4-b]pyridin-3-amine]: in series [3], the IC50 at 24 h was > 100 µM.
For the compound `Nc1noc2nc(Oc3ccc(OC(F)(F)F)cc3)ccc12` [Compound 89, 6-(4-(Trifluoromethoxy)phenoxy)isoxazolo[5,4-b]pyridin-3-amine], the IC50 at 24 h in series [3] is > 100 µM.
Take `Nc1noc2nc(C(F)(F)F)ccc12` [Compound 47, 6-(Trifluoromethyl)isoxazolo[5,4-b]pyridin-3-amine]: the IC50 is 1 to 10 µM in series [1] and < 1 µM in series [2]. The IC50 at 24 h in series [3] is > 100 µM.
For `Nc1noc2nc(-c3ccccc3)ccc12` [Compound 15, 6-Phenylisoxazolo[5,4-b]pyridin-3-amine], in that order: 10 to 100 µM, > 100 µM and > 100 µM.
Consider `Nc1noc2ncc([N+](=O)[O-])cc12` [Compound 49, 5-Nitroisoxazolo[5,4-b]pyridin-3-amine], for which, in series [1], the IC50 is < 1 µM. The IC50 at 24 h in series [3] was > 100 µM.
`Cc1nc2onc(N)c2c(C)c1Br` [Compound 1, 5-Bromo-4,6-dimethylisoxazolo[5,4-b]pyridin-3-amine]: the IC50 in series [1] lay within 10 to 100 µM. In addition, the IC50 at 24 h in series [3] is > 100 µM.
On to `Cc1nc2onc(NC(=O)Nc3cccc(C(F)(F)F)c3)c2c(C)c1Cl` [Compound 15B, 1-(5-Chloro-4,6-dimethylisoxazolo[5,4-b]pyridin-3-yl)-3-(3-(trifluoromethyl)phenyl)urea], for which the values for the IC50 in series [2] and in series [4] were > 100 µM and 1 to 10 µM, respectively. The IC50 at 24 h in series [3] is > 100 µM.
For `Nc1noc2ncc(F)cc12` [Compound 14, 5-Fluoroisoxazolo[5,4-b]pyridin-3-amine], the IC50 in series [1] was 1 to 10 µM; in series [2], > 100 µM; in series [4] it was 1 to 10 µM. In addition, the IC50 at 24 h in series [3] is > 100 µM.
Turning to `Nc1noc2nc3ccccc3cc12` [Compound 9, Isoxazolo[5,4-b]quinolin-3-amine], the IC50 in series [1] was in the range of 1 to 10 µM. Also, the IC50 at 24 h in series [3] was in the range of 10 to 100 µM.
For `Cc1cc(C)c2c(N)noc2n1` [Compound 4, 4,6-Dimethylisoxazolo[5,4-b]pyridin-3-amine], the IC50 in series [1] lay within 10 to 100 µM. For the same compound, the IC50 at 24 h in series [3] was > 100 µM.
In the case of `Nc1noc2ncc(Cl)cc12` [Compound 8, 5-Chloroisoxazolo[5,4-b]pyridin-3-amine], in series [1], the IC50 is < 1 µM. The IC50 at 24 h in series [3] is > 100 µM.
Consider `Nc1noc2nc3c(cc12)CCCC3` [Compound 10, 5,6,7,8-Tetrahydroisoxazolo[5,4-b]quinolin-3-amine], for which the IC50 in series [1] is 10 to 100 µM; in series [2], > 100 µM. Moreover, the IC50 at 24 h in series [3] was > 100 µM.
For the compound `Cc1nc2onc(N)c2c(C)c1C` [Compound 5, 4,5,6-Trimethylisoxazolo[5,4-b]pyridin-3-amine], the IC50 fell in the range of 10 to 100 µM in series [1] and 1 to 10 µM in series [4]. For the same compound, the IC50 at 24 h in series [3] was > 100 µM.
As for `Nc1noc2ncc(-c3ccccc3)cc12` [Compound 24, 5-Phenylisoxazolo[5,4-b]pyridin-3-amine], the IC50 in series [1] is 1 to 10 µM; in series [2], > 100 µM; in series [4], 10 to 100 µM. In addition, the IC50 at 24 h in series [3] was > 100 µM.
On to `Cc1cc(Cl)nc2onc(N)c12` [Compound 42, 6-Chloro-4-methylisoxazolo[5,4-b]pyridin-3-amine], for which the IC50 in series [1] is 1 to 10 µM; in series [2], < 1 µM. The IC50 at 24 h in series [3] was > 100 µM.
For `Nc1noc2nc(Oc3ccccc3Cl)ccc12` [Compound 84, 6-(2-Chlorophenoxy)isoxazolo[5,4-b]pyridin-3-amine], the IC50 in series [1] was in the range of 1 to 10 µM. Further, the IC50 at 24 h in series [3] is > 100 µM.
On to `N.N.O=C([O-])C1(C(=O)[O-])CCC1.[Pt+2]` [carboplatin], for which, in the series on LLC-CR cells (LLC-CR cells), the “GI50 concentration in resistant clones” value is 1.3 µg/mL. Moreover, the “fold resistance of LLC-CR” value with LLC-CR cells (LLC-CR versus parental LLC) was 3-5 fold.
